Data from patent publication US10870647B2, “Imidazopyridine derivative, method for preparing same, and pharmaceutical composition containing same as active ingredient for preventing or treating cancer” (DAEGU-GYEONGBUK MEDICAL INNOVATION FOUNDATION, priority 2016, dated 2020).
Like-named read-outs stand apart in the source and are kept apart here.

Key:
[1] = target: T1, scanMAX Kinase assay panel (Homo sapiens, UniProt P36888); test: Kinase selectivity, scanMAX Kinase assay panel (DiscoverX), % control at 1 uM; assay type: binding; details: 1 uM, read-out: Percent Control (%)
T1 construct: purchased DiscoverX
T1 sequence (P36888 27-993): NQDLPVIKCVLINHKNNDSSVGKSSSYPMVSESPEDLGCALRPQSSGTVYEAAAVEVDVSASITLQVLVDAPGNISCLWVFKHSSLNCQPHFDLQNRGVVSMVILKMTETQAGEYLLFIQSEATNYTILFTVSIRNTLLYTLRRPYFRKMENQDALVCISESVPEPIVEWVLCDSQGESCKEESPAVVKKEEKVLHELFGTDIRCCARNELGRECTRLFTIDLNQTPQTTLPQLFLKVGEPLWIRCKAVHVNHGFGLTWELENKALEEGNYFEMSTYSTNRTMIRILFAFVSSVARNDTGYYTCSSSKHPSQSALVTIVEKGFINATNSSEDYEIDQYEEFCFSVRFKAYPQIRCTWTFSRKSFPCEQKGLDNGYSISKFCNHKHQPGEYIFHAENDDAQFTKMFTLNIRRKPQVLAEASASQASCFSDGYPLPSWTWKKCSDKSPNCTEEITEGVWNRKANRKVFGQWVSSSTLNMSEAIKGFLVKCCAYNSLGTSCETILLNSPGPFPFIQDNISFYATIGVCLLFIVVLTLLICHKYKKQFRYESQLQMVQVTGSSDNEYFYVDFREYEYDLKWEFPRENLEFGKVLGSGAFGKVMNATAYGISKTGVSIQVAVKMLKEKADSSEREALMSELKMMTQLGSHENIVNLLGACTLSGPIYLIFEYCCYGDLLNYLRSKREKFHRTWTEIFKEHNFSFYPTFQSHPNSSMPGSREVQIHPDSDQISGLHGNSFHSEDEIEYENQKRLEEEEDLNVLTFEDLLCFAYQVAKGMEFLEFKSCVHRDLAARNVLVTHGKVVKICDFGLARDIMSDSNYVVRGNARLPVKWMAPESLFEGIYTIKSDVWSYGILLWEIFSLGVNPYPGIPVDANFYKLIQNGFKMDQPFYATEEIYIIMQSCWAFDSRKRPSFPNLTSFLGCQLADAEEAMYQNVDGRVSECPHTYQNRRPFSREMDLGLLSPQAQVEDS
Procedure, shortened: (§1)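 Each kinase was first exposed to the test compound at 1 uM in DMSO. Signal was then normalised to positive and negative controls to give % control. Finally, any enzyme showing <35% control was judged inhibited.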

[2] = target: T2, scanMAX Kinase assay panel (Homo sapiens, UniProt Q9NRP7); test: as above; assay type: binding; details: STK36; 1 uM; read-out: Percent Control (%)
T2 construct: purchased DiscoverX
T2 sequence (Q9NRP7 1-1315): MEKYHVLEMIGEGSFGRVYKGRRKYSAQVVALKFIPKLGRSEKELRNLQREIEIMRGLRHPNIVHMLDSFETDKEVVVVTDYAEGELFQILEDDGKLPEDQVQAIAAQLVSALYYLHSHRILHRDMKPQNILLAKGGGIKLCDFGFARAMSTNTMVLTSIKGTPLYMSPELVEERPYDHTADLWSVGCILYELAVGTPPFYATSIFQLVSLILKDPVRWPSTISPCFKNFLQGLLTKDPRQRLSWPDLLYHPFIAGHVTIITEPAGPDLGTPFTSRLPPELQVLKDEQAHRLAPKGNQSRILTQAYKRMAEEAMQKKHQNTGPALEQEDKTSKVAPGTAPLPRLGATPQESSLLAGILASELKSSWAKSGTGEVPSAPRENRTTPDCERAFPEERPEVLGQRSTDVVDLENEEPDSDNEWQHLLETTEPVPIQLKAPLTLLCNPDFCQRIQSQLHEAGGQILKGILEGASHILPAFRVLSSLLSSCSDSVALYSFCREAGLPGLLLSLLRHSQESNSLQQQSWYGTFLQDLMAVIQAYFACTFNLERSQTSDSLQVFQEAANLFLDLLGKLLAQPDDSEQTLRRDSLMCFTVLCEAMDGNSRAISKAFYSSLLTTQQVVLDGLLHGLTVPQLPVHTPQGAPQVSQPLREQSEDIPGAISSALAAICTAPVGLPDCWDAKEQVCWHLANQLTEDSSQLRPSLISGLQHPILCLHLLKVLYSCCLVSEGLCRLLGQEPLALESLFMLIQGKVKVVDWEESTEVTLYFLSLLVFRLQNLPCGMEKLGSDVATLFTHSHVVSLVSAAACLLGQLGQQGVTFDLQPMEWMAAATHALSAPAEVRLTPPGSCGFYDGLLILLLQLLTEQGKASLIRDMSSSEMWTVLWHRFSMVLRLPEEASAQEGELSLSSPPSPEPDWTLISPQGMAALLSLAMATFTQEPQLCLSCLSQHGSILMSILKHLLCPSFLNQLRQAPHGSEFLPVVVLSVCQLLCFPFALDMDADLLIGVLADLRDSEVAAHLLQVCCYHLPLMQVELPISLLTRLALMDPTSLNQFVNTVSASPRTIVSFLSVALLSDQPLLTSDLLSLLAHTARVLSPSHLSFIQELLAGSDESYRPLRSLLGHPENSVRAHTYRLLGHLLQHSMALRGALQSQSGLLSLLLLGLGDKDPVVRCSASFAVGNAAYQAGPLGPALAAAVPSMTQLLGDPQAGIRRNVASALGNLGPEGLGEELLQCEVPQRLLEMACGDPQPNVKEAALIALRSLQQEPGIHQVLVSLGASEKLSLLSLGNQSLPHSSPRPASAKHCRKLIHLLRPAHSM
Procedure, shortened: as §1

| SMILES | remaining binding at 1 µM ([1]; FLT3-autoinhibited) [%] | remaining binding at 1 µM ([1]; FLT3) [%] | remaining binding at 1 µM [2] [%] |
| --- | --- | --- | --- |
| Cc1ccc(C(=O)Nc2ccc(CN3CCN(C)CC3)c(C(F)(F)F)c2)cc1C#Cc1cnc2c(Nc3cnn(C)c3)cccn12 [Example 1, 4-methyl-3-((8-((1-methyl-1H-pyrazol-4-yl)amino)imidazo[1,2-a]pyridin-3-yl)ethynyl)-N-(4-((4-methylpiperazin-1-yl)methyl)-3-(trifluoromethyl)phenyl)benzamide] | 46 | 1 | 1 |
| Cc1cn(-c2cc(NC(=O)c3ccc(C)c(C#Cc4cnc5c(Nc6cnn(C)c6)cccn45)c3)cc(C(F)(F)F)c2)cn1 [Example 12, 4-methyl-N-(3-(4-methyl-1H-imidazol-1-yl)-5-(trifluoromethyl)phenyl)-3-((8-((1-methyl-1H-pyrazol-4-yl)amino)imidazo[1,2-a]pyridin-3-yl)ethynyl)benzamide] | 100 | 4 | 89 |
| Cc1ccc(NC(=O)C2(C(=O)Nc3ccc(F)cc3)CC2)cc1C#Cc1cnc2c(Nc3cnn(C(C)C)c3)cccn12 [Example 78] | 100 | 42 | 100 |
